Several values for one entry are separate records, joined by “and”; a condition that tells them apart may be missing. Equal values may be shown once. These antisense oligonucleotides have a phosphorothioate backbone; sugars and methylation of C are not fully specified.
target: ICAM1; details: ASO
Also: test concentration or dose not given here.

Row | Sequence | remaining target (mRNA or protein) (fraction of control)
1 | TTGAGAAAGCTTTATTAACT | ≥ 1
2 | GATGCTACACATGTC | 0.58
3 | GCTTTCCCGGAAA | 0.82
4 | TGGGAGCCATAGCGAG | 0.55
5 | AGCCATAGCGAGGCTGAGGTT | 0.2
6 | CACATGTCTATGGAGGG | 0.89
7 | AACCTCGCGC | 0.96
8 | AGCTGCGCTGCTACCTGCAC | 0.25
9 | GGGGCGGTGCTGCTTTCCCGG | ≥ 1
10 | ATAGCGAGGC | ≥ 1
11 | GCTACACATGTCTATGGAGGG | 0.35
12 | CTCTGAGTAGCAGAGG | 0.76
13 | GGAGCCATAGCGAGGC | 0.35
14 | GGGCGCGTGATCCTTATAGC | 0.8
15 | GCTTTCCCGGAAACCTCGCGC | 0.48
16 | GGCAGAAATGTATGTGGGTGG | 0.68
17 | GGTTGCAACTCTGAG | 0.36
18 | CATAGCGAGGCTGAGGTTGC | 0.39
19 | CTCATCCAGCAGGCTCAGGG | 0.75

Row | Sequence | remaining target (mRNA or protein) (fraction of control)
20 | ACACATACACACACACACACA | 0.54
21 | TGCCAGTCCACATAGTGTTT | 0.25
22 | CCCGGAAACCTCGCGC | 0.88
23 | GAGTAGCAGAGGAGC | 0.61
24 | CCATAGCGAGGC | ≥ 1
25 | TGCTTACCCTCCCACAGCAG | 0.1
26 | GGGCCACTTCTTCTGTAA | 0.33
27 | CCCCGACTCACCTGGGAACAG | 0.66
28 | GAGGCTGAGGTGGGAGGA | 0.98
29 | GGCTGAGGTTG | 0.9
30 | CGATGGGCAGTGGGAAAG | 0.95
31 | CCTGTCCCGGGATAGGTTCA | 0.4
32 | GCCCATTGCAGGGCCAGGGC | 0
33 | TGCCCATCAGGGCAGTTTGA | 0.4
34 | AGCCACCTGGGGGCCAAGGGG | ≥ 1
35 | AGCGAGGCTG | 0.97
36 | CTCTGAGTAGCAGAGGAGCTC | 0.17
37 | GACACTCAATAAATAGCTGGT | 0.5
38 | GCGTCGACTGGGGCGCGTGAT | 0.95

Row | Sequence | remaining target (mRNA or protein) (fraction of control)
39 | CTGAGGTTGC | 0.95
40 | GAGGAGCTCAGCGTCGACTG | 0.83 and ≥ 1
41 | CCCCCACCACTTCCCCTCTC | 0
42 | CCCCCACCACTTCCCCTCTCA | 0.07
43 | CTATGGAGGGCCACTTC | 0.39
44 | AGCGAGGCTGAG | 0.79
45 | CGGGGGCTGCTGGGAGC | 0.76
46 | TTGGGACAATGTCTCAGCTT | 0.25
47 | GGAAACCTCGCGC | 0.91
48 | TCTGAGTAGCAGAGGAGCTCAG | 0.33
49 | CCAGAGGAAGTGGCTGAGGG | 0.35
50 | CAAGTGTGCATCCCCCAGGC | 0
51 | AGCCATAGCGAGGC | 0.64
52 | TGATCCTTTATAGCGCTAGCC | 0.9
53 | GGGTTGAAGCCATTGCAGGG | 0.45
54 | TCTGAGTAGCAGAGGAGCTCA | 0.3
55 | TGGGAGCCATAGCGAGGC | 0.38
56 | TGCATCCCCCAGGCCACCAT | 0
57 | GGAGCTCAGCGTCGA | 0.85

target: PDPK1; details: ASO

Row | Sequence | remaining target (mRNA or protein) (fraction of control)
58 | CGAAGTTCTTGTGACCAA | ≥ 1
59 | AACTGGTGCCAAGGGTTT | 0.54
60 | CCAGCTCGGAATGGTGGG | 0.82
61 | CTTCCATTTCCTCACAGC | 0.33
62 | AAAAGAGCCTTCCCCAAG | 0.88
63 | AGGCGCGACATGACATCC | 0.25
64 | CAAGGTTTCCGCCTCTGC | 0.26
65 | TTGGCCCTGGCTTGTTTG | 0.23
66 | TCCTGTTAGGCGTGTGGA | 0.53
67 | AAAGGTCTGAACTCTTAC | 0.59
68 | GGTACAGGTCTCATCGAA | 0.1
69 | GGAGGCTGGGCATGCTGC | 0.16
70 | GACATCCCGCTCTCTGGT | 0.68
